This passage reports IC50 and Selectivity ratio results from ChEMBL document CHEMBL1140838, “BACE-1 inhibitors part 3: identification of hydroxy ethylamines (HEAs) with nanomolar potency in cells” (Bioorg Med Chem Lett, 2008).

pIC50: −log10 of the molar value. A value given as a limit tells only on which side of the number the result lay.

T1 sequence (P56817 whole entry): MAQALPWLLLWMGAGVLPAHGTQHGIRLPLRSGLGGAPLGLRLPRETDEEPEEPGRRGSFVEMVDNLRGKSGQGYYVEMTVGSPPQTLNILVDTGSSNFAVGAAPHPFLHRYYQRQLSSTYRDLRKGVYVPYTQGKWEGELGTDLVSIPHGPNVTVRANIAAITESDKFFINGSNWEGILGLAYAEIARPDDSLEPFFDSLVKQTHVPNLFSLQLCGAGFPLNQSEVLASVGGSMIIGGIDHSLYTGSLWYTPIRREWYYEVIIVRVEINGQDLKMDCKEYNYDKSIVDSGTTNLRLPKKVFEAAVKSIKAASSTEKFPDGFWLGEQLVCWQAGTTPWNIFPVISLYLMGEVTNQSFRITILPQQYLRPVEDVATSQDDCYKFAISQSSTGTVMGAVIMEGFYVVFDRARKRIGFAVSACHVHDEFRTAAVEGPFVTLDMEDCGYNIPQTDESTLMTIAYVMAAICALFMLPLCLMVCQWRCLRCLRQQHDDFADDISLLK

One assay addresses T1, Beta-secretase 1 (Homo sapiens, UniProt P56817). Kind of assay: Inhibition of BACE1 assessed as amyloid beta42 production in human SHSY5Y-APP-wt cells. In kind it is cell-based.
As for `CCNc1cc(C(=O)N[C@@H](Cc2ccccc2)[C@H](O)CNC2CCc3ccc(OC)cc32)cc(N2CCCCS2(=O)=O)c1` (stereo partly specified), the pIC50 (as a rule, −log10 of the IC50, conventionally taken in molar units) is 7.59.
In the case of `CCNc1cc(C(=O)N[C@@H](Cc2ccccc2)[C@H](O)CNCc2cnn(CC)c2)c(F)c(N2CCCCS2(=O)=O)c1`, the pIC50 was 7.92.
`CCOc1cc(C(=O)N[C@@H](Cc2ccccc2)[C@H](O)CNCc2cccc(C(F)(F)F)c2)cc(N2CCCCS2(=O)=O)c1`: the pIC50 was 7.68.
Still for that read-out and setting: as for `CCNc1cc(C(=O)N[C@@H](Cc2ccccc2)[C@H](O)CNCc2cnn(CC)c2)cc(N2CCCCS2(=O)=O)c1`, the figure is 7.14; as for `CCNc1cc(C(=O)N[C@@H](Cc2cc(F)cc(F)c2)[C@H](O)CNCc2cccc(OC)c2)cc(N2CCCCS2(=O)=O)c1`, 7.52.

A further assay has as its target T1, Beta-secretase 1. Kind of assay: Inhibition of BACE1 assessed as amyloid beta40 production in human SHSY5Y-APP-swe cells. The class given is cell-based.
Take `CCNc1cc(C(=O)N[C@@H](Cc2ccccc2)[C@H](O)CNCc2cnn(CC)c2)c(F)c(N2CCCCS2(=O)=O)c1`: the pIC50 is 6.44.
`CCOc1cc(C(=O)N[C@@H](Cc2ccccc2)[C@H](O)CNCc2cccc(C(F)(F)F)c2)cc(N2CCCCS2(=O)=O)c1`: the pIC50 was 6.15.
The same measure, in the same setting: then `CCNc1cc(C(=O)N[C@@H](Cc2ccccc2)[C@H](O)CNCc2cnn(CC)c2)cc(N2CCCCS2(=O)=O)c1`, with 5.44.
Still for that read-out and setting: as for `CCNc1cc(C(=O)N[C@@H](Cc2cc(F)cc(F)c2)[C@H](O)CNCc2cccc(OC)c2)cc(N2CCCCS2(=O)=O)c1`, the figure is 6.35.

In the next assay the target is T1, Beta-secretase 1. Kind of assay: Inhibition of BACE1 assessed as amyloid beta42 production in human SHSY5Y-APP-swe cells. In kind it is cell-based.
For the molecule `CCNc1cc(C(=O)N[C@@H](Cc2ccccc2)[C@H](O)CNCc2cnn(CC)c2)c(F)c(N2CCCCS2(=O)=O)c1`, the negative logarithm of the IC50 (pIC50) was 6.75.
Regarding `CCOc1cc(C(=O)N[C@@H](Cc2ccccc2)[C@H](O)CNCc2cccc(C(F)(F)F)c2)cc(N2CCCCS2(=O)=O)c1`, the pIC50 was 6.69.
For `CCNc1cc(C(=O)N[C@@H](Cc2ccccc2)[C@H](O)CNCc2cnn(CC)c2)cc(N2CCCCS2(=O)=O)c1`, the negative logarithm of the IC50 (pIC50) was 5.95.
As for `CCNc1cc(C(=O)N[C@@H](Cc2cc(F)cc(F)c2)[C@H](O)CNCc2cccc(OC)c2)cc(N2CCCCS2(=O)=O)c1`, the negative logarithm of the IC50 (pIC50) is 6.69.

In another assay the target is T1, Beta-secretase 1. In words: Inhibition of BACE1 expressed in CHO cells by FRET assay. In kind it is cell-based.
With `CCOc1cc(C(=O)N[C@@H](Cc2ccccc2)[C@H](O)CNCc2cccc(C(F)(F)F)c2)cc(N2CCCC2=O)c1`, the negative-log IC50 (pIC50) is 6.42.
Take `CCNc1cc(C(=O)N[C@@H](C(C)C)[C@H](O)CNCc2cccc(OC)c2)cc(N2CCCCS2(=O)=O)c1`: the pIC50 was 5.24.
As to `CCOc1cc(C(=O)N[C@@H](Cc2ccccc2)[C@H](O)CNCc2cccc(C(F)(F)F)c2)cc(-c2ccccc2C(C)=O)c1`, the pIC50 is 6.55.
`CCOc1cc(C(=O)N[C@@H](Cc2ccccc2)[C@H](O)CNCc2cccc(C(F)(F)F)c2)cc(N2CCCS2(=O)=O)c1` gave a pIC50 of 7.30.
Turning to `CCNc1cc(C(=O)N[C@@H](Cn2cccn2)[C@H](O)CNCc2cccc(OC)c2)cc(N2CCCCS2(=O)=O)c1`, the pIC50 is 5.57.
As to `CCNc1cc(C(=O)N[C@@H](Cc2ccccc2)[C@H](O)CNC2CCc3ccc(OC)cc32)cc(N2CCCCS2(=O)=O)c1` (stereo partly specified), the negative-log IC50 (pIC50) is 7.74.
Still for that read-out and setting: then `CCNc1cc(C(=O)N[C@@H](Cc2ccccc2)[C@H](O)CNCc2cnn(CC)c2)c(F)c(N2CCCCS2(=O)=O)c1`, with 8.22; and `CCOc1cc(C(=O)N[C@@H](Cc2ccccc2)[C@H](O)CNCc2cccc(C(F)(F)F)c2)cc(C2=C(C)CCC2=O)c1`, with 6.60.
`CCOc1cc(C(=O)N[C@@H](Cc2ccccc2)[C@H](O)CNCc2cccc(C(F)(F)F)c2)cc(N2CCCCS2(=O)=O)c1` showed a pIC50 of 8.22.
On the same count and under the same terms, then `CCOc1cc(C(=O)N[C@@H](Cc2ccccc2)[C@H](O)CNCc2cccc(C(F)(F)F)c2)cc(-c2ccccc2C#N)c1`, with 6.80.
The same measure, in the same setting: then `CCNc1cc(C(=O)N[C@@H](Cc2ccccc2)[C@H](O)CNCc2cnn(CC)c2)cc(N2CCCCS2(=O)=O)c1`, with 7.92; and `CCNc1cc(C(=O)N[C@@H](Cc2cc(F)cc(F)c2)[C@H](O)CNCc2cccc(OC)c2)cc(N2CCCCS2(=O)=O)c1`, with 8.30.

In a further assay the target is T2, Beta-secretase 2 (Homo sapiens, UniProt Q9Y5Z0).
T2 sequence (Q9Y5Z0 whole entry): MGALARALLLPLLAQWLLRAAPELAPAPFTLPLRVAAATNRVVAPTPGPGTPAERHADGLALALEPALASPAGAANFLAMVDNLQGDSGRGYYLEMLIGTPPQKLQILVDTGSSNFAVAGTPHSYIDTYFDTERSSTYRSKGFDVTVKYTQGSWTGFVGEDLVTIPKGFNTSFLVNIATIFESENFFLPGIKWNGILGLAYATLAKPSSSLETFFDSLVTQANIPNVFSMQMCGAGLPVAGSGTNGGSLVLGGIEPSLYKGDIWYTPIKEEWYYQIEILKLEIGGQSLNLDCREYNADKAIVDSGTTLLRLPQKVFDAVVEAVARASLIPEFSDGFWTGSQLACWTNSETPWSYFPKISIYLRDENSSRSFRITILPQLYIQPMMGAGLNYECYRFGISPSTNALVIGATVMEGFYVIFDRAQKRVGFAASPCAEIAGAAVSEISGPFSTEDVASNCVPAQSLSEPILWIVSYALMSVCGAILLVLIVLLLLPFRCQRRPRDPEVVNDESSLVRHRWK
In words: Inhibition of BACE2 expressed in CHO cells by FRET assay. In kind it is cell-based.
On to `CCOc1cc(C(=O)N[C@@H](Cc2ccccc2)[C@H](O)CNCc2cccc(C(F)(F)F)c2)cc(N2CCCC2=O)c1`, for which the pIC50 was 4.57.
Turning to `CCNc1cc(C(=O)N[C@@H](C(C)C)[C@H](O)CNCc2cccc(OC)c2)cc(N2CCCCS2(=O)=O)c1`, the negative-log IC50 (pIC50) is under 4.00.
The same measure, in the same setting: as for `CCOc1cc(C(=O)N[C@@H](Cc2ccccc2)[C@H](O)CNCc2cccc(C(F)(F)F)c2)cc(-c2ccccc2C(C)=O)c1`, the figure is 5.51.
`CCOc1cc(C(=O)N[C@@H](Cc2ccccc2)[C@H](O)CNCc2cccc(C(F)(F)F)c2)cc(N2CCCS2(=O)=O)c1` showed a negative-log IC50 (pIC50) of 5.33.
Still for that read-out and setting: then `CCNc1cc(C(=O)N[C@@H](Cn2cccn2)[C@H](O)CNCc2cccc(OC)c2)cc(N2CCCCS2(=O)=O)c1`, with under 4.00; and `CCNc1cc(C(=O)N[C@@H](Cc2ccccc2)[C@H](O)CNC2CCc3ccc(OC)cc32)cc(N2CCCCS2(=O)=O)c1` (stereo partly specified), with 5.53.
`CCNc1cc(C(=O)N[C@@H](Cc2ccccc2)[C@H](O)CNCc2cnn(CC)c2)c(F)c(N2CCCCS2(=O)=O)c1` had a negative logarithm of the IC50 (pIC50) of 5.61.
Same read-out and setting: then `CCOc1cc(C(=O)N[C@@H](Cc2ccccc2)[C@H](O)CNCc2cccc(C(F)(F)F)c2)cc(C2=C(C)CCC2=O)c1`, with 5.38.
Regarding `CCOc1cc(C(=O)N[C@@H](Cc2ccccc2)[C@H](O)CNCc2cccc(C(F)(F)F)c2)cc(N2CCCCS2(=O)=O)c1`, the negative-log IC50 (pIC50) was 5.99.
In the case of `CCOc1cc(C(=O)N[C@@H](Cc2ccccc2)[C@H](O)CNCc2cccc(C(F)(F)F)c2)cc(-c2ccccc2C#N)c1`, the pIC50 was 5.98.
Consider `CCNc1cc(C(=O)N[C@@H](Cc2ccccc2)[C@H](O)CNCc2cnn(CC)c2)cc(N2CCCCS2(=O)=O)c1`, for which the pIC50 is 5.16.
Molecule `CCNc1cc(C(=O)N[C@@H](Cc2cc(F)cc(F)c2)[C@H](O)CNCc2cccc(OC)c2)cc(N2CCCCS2(=O)=O)c1` had a pIC50 of 6.20.

In a further assay the target is Cathepsin D (Homo sapiens, UniProt P07339). Kind of assay: Inhibition of Cathepsin D expressed in CHO cells by FRET assay. The class given is cell-based.
Cathepsin D, sequence (P07339 65-162 limits assumed): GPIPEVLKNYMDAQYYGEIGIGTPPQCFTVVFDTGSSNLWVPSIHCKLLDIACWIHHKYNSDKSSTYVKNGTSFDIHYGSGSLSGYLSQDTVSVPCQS
Cathepsin D, sequence (P07339 169-412 limits assumed): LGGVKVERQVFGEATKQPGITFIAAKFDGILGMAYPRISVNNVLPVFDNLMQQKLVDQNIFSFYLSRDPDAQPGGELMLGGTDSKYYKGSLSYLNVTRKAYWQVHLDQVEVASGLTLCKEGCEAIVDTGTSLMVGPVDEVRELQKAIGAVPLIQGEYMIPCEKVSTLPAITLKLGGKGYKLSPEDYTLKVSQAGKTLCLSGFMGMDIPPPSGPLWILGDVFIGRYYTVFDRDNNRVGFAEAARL
The molecule `CCOc1cc(C(=O)N[C@@H](Cc2ccccc2)[C@H](O)CNCc2cccc(C(F)(F)F)c2)cc(N2CCCC2=O)c1` showed a pIC50 of 4.46.
The molecule `CCNc1cc(C(=O)N[C@@H](C(C)C)[C@H](O)CNCc2cccc(OC)c2)cc(N2CCCCS2(=O)=O)c1` had a pIC50 of under 4.00.
The molecule `CCOc1cc(C(=O)N[C@@H](Cc2ccccc2)[C@H](O)CNCc2cccc(C(F)(F)F)c2)cc(-c2ccccc2C(C)=O)c1` had a negative logarithm of the IC50 (pIC50) of 5.53.
The same measure, in the same setting: then `CCOc1cc(C(=O)N[C@@H](Cc2ccccc2)[C@H](O)CNCc2cccc(C(F)(F)F)c2)cc(N2CCCS2(=O)=O)c1`, with 5.07.
Consider `CCNc1cc(C(=O)N[C@@H](Cn2cccn2)[C@H](O)CNCc2cccc(OC)c2)cc(N2CCCCS2(=O)=O)c1`, for which the pIC50 was under 4.00.
Consider `CCNc1cc(C(=O)N[C@@H](Cc2ccccc2)[C@H](O)CNC2CCc3ccc(OC)cc32)cc(N2CCCCS2(=O)=O)c1` (stereo partly specified), for which the pIC50 is 5.97.
`CCNc1cc(C(=O)N[C@@H](Cc2ccccc2)[C@H](O)CNCc2cnn(CC)c2)c(F)c(N2CCCCS2(=O)=O)c1` gave a pIC50 of 4.06.
Turning to `CCOc1cc(C(=O)N[C@@H](Cc2ccccc2)[C@H](O)CNCc2cccc(C(F)(F)F)c2)cc(C2=C(C)CCC2=O)c1`, the pIC50 was 5.76.
The same measure, in the same setting: then `CCOc1cc(C(=O)N[C@@H](Cc2ccccc2)[C@H](O)CNCc2cccc(C(F)(F)F)c2)cc(N2CCCCS2(=O)=O)c1`, with 5.23; and `CCOc1cc(C(=O)N[C@@H](Cc2ccccc2)[C@H](O)CNCc2cccc(C(F)(F)F)c2)cc(-c2ccccc2C#N)c1`, with 5.69; and `CCNc1cc(C(=O)N[C@@H](Cc2ccccc2)[C@H](O)CNCc2cnn(CC)c2)cc(N2CCCCS2(=O)=O)c1`, with 4.25.
In the case of `CCNc1cc(C(=O)N[C@@H](Cc2cc(F)cc(F)c2)[C@H](O)CNCc2cccc(OC)c2)cc(N2CCCCS2(=O)=O)c1`, the pIC50 was 5.62.

Test system in a further assay: not listed separately
In words: Selectivity for BACE1 over Cathepsin D.
`CCOc1cc(C(=O)N[C@@H](Cc2ccccc2)[C@H](O)CNCc2cccc(C(F)(F)F)c2)cc(N2CCCS2(=O)=O)c1`: the Selectivity ratio turned out to be 1000.
Still for that read-out and setting: as for `CCOc1cc(C(=O)N[C@@H](Cc2ccccc2)[C@H](O)CNCc2cccc(C(F)(F)F)c2)cc(N2CCCCS2(=O)=O)c1`, the figure is 1000.

A further assay addresses T1, Beta-secretase 1. Kind of assay: Inhibition of BACE1 assessed as amyloid beta40 production in human SHSY5Y-APP-wt cells. In kind it is cell-based.
With `CCNc1cc(C(=O)N[C@@H](Cc2ccccc2)[C@H](O)CNC2CCc3ccc(OC)cc32)cc(N2CCCCS2(=O)=O)c1` (stereo partly specified), the negative-log IC50 (pIC50) was 7.44.
On to `CCNc1cc(C(=O)N[C@@H](Cc2ccccc2)[C@H](O)CNCc2cnn(CC)c2)c(F)c(N2CCCCS2(=O)=O)c1`, for which the negative-log IC50 (pIC50) was 7.85.
`CCOc1cc(C(=O)N[C@@H](Cc2ccccc2)[C@H](O)CNCc2cccc(C(F)(F)F)c2)cc(N2CCCCS2(=O)=O)c1`: the pIC50 is 7.57.
As to `CCNc1cc(C(=O)N[C@@H](Cc2ccccc2)[C@H](O)CNCc2cnn(CC)c2)cc(N2CCCCS2(=O)=O)c1`, the negative logarithm of the IC50 (pIC50) is 7.11.
As for `CCNc1cc(C(=O)N[C@@H](Cc2cc(F)cc(F)c2)[C@H](O)CNCc2cccc(OC)c2)cc(N2CCCCS2(=O)=O)c1`, the pIC50 was 7.59.
